# Experiment: Biotin-4-fluorescein (B4F) competition assay, binding affinity of chimeric proteins
# Settings: room temperature
substance,measurement,value
commercial streptavidin: streptavidin (MP Biomedicals) [reference compound],"binding behavior to biotin-4-fluorescein (fluorescence intensity, binding curve fits)",equivalent binding behavior
